Numbers after ± are expanded uncertainties.
Conditions: 101.33 kPa, Liquid, Capillary tube (Ostwald / Ubbelohde) method

SMILES | viscosity (298.15 K) | viscosity (313.15 K)
CCCCCl [1-chlorobutane] | 0.4273 ± 0.0045 mPa·s | 0.3645 ± 0.004 mPa·s
CCC(C)O (stereo unspecified) [butan-2-ol] | 3.08 ± 0.027 mPa·s | 1.794 ± 0.016 mPa·s
CCCCCC [hexane] | 0.2944 ± 0.0034 mPa·s | 0.2537 ± 0.0031 mPa·s
